Data set [1] has as its system NUGC4. In words: Combined use with irradiation (IR), Bliss Independence model (Cell Titer Glo, 7 days). In kind it is cell-based. As to conditions: combination with IR. The protocol: (§1) DLD-1 colorectal adenocarcinoma cells, NUGC4 gastric cancer cells, NCI-H460 non-small cell lung cancer cells, SHP-77 small cell lung cancer cells, and LNCAP prostate cancer cells were cultured in a 1640 medium containing 10% fetal bovine serum. MDA-MB-436 breast cancer cells were cultured in a DMEM medium containing 10% fetal bovine serum. OVCAR3 ovarian cancer cells were cultured in a 1640 medium containing 20% fetal bovine serum and 10 µg/mL bovine insulin. The cells were all cultured at 37 °C with 5% CO2. Cells at the logarithmic growth phase were available for the experiment.
(§2) 100 µL of the cell medium was added to rows A and H and columns 1 and 12 of a 96-well cell culture plate. Cultured cells were resuspended (adherent cells were digested with trypsin) and counted to give information on cell density and viability. The dilution ratio of the resuspended cells required for inoculating a fixed number of cells into 90 µL of the medium in each culture well was calculated based on the cell density information. After the resuspended cells were diluted with the corresponding medium, 90 µL of the diluted cells were transferred to columns 2-11 of rows B-G of a 96-well cell culture plate using an Eppendorf multi-channel pipette (60 wells in total for each plate). The cell culture plate was incubated overnight in an incubator at 37 °C with 5% CO2.
(§3) The test compound was dissolved in DMSO to give a 10 mM stock solution for later use. In the experiment, the compound was further diluted to the corresponding concentration according to the concentration designed in the experiment, and based on this concentration, 4-fold serial gradient dilution was performed to give a total of 10 dose concentrations (the lowest dose was 0, and other specific concentration values were shown in FIG. 2). 10 µL of the diluted compound was added to the corresponding cell plate well, such that the final concentration of DMSO was 0.25%. The compound was incubated with the cells in an incubator at 37 °C with 5% CO2 for 4 h, and then the cell plate was transferred to Cellrad for irradiation (abbreviated as IR) at different doses (see FIG. 2 for specific dose values). After the irradiation was completed, the cell plate was incubated in an incubator at 37 °C with 5% CO2 for another 7 days, Cell Titer Glo was added at 50 µL/well, and the luminescence value of each well was read using an Envision microplate reader.
(§4) The luminescence value of the well containing only the cell medium was taken as the background (RLUbackground, corresponding cell survival rate to be 0%), the cell well containing only 0.25% DMSO without the compound and the irradiation treatment was taken as the maximum signal (RLUDMSO, corresponding cell survival rate to be 100%), and the luminescence values of the remaining wells containing cells and compounds at different concentrations were taken as RLUsample. The survival rate of each cell well was calculated as follows: Survival rate (%) = (RLUsample−RLUbackground)/(RLUDMSO−RLUbackground) × 100% [formula]
(§5) The interaction between the drug and irradiation (synergistic, independent, or antagonistic) was statistically analyzed by the Bliss Independence model using Combenefit software (Bliss, C.I., Bacteriol. Rev., 1956, 20, 243-258). The model assumes that the drug and irradiation act independently. The theoretical expected action curve of the combination was calculated from the following equation: Bliss effect = effect A + effect B−effect A × effect B [formula] wherein effect A is the effect of drug A at a particular concentration. Effect B is the effect of irradiation at a particular dose.
(§6) The Bliss effect is the expected effect when the combination of the drug and irradiation is administered precisely. A negative Bliss score (δ = observed effect - Bliss effect) indicates an antagonistic effect between the drug and irradiation if the observed effect (i.e., the experimentally measured combined effect) is less than the Bliss effect. […]
(In general: ATP-based viability assays read luminescence as a measure of living cells.)

Data set [2] has as its system DLD-1. Described as above. In kind it is cell-based. Conditions: combination with IR. As to the method:
as §1, §2, §3, §4, §5, §6

Data set [3] relates to MDA-MB-436. The description is as above. Format: cell-based. Conditions: combination with IR. The protocol:
as §1, §2, §3, §4, §5, §6

Data set [4] relates to NCI-H460. The description is as above. Format: cell-based. Conditions: combination with IR. As to the method:
as §1, §2, §3, §4, §5, §6

Data set [5] relates to LNCAP. Described as above. In kind it is cell-based. Conditions: combination with IR. The protocol:
as §1, §2, §3, §4, §5, §6

Data set [6] concerns OVCAR3. The data set is described as above. Format: cell-based. As to conditions: combination with IR. As to the method:
as §1, §2, §3, §4, §5, §6

The subject of data set [7] is SHP-77. The description is as above. Format: cell-based. As to conditions: combination with IR. As to the method: as §1, §2, §3, §4, §5, §6
The subject of data set [8] is human breast cancer MDA-MB-436 cells. In words: Efficacy of combined use with olaparib in MDA-MB-436 xenograft tumor model. In kind it is in vivo, NOD-SCID mice. Conditions: 30 mg/kg QD intragastric in combination with 10 mg/kg olaparib QD. The source says:
The anti-tumor activity of the sodium salt of compound I used in combination with olaparib (MCE, 136925) was studied using a MDA-MB-436 subcutaneous tumor model. 24 female NOD-SCID mice (6-7 weeks old, Beijing Vital River Laboratory Animal Technology Co., Ltd.) were subcutaneously inoculated with 1 × 10^7 human breast cancer MDA-MB-436 cells (natural BRCA1 mutation, Nanjing Cobioer). When the tumors grew to 80-120 mm^3, the mice were randomly divided into four groups with six mice per group: a first group treated with vehicle control (QD) by intragastric administration, a second group treated with a 30 mg/kg solution of the sodium salt of compound I (QD) by intragastric administration, a third group treated with a 10 mg/kg olaparib solution (QD) by intragastric administration, and a fourth group treated with a 30 mg/kg solution of the sodium salt of compound I (QD) by intragastric administration and a 10 mg/kg olaparib solution (QD) by intragastric administration. The vehicle of olaparib was a solution containing 10% DMSO, 50% 2-hydroxypropyl-β-cyclodextrin (Aladdin-F2223139, 60% aqueous solution), and 40% water, the vehicle of the sodium salt of compound I was 10% (w/v) Vitamin E TPGS (Hanhong Chemical-BH-GN0100619-22 1101) aqueous solution, and the vehicle of the vehicle control group was a mixture of the vehicle of olaparib and the vehicle of the sodium salt of compound I (mixed at a volume ratio of 1:1). Mice had free access to food and water throughout the experiment.
Tumor diameters were measured twice weekly using a vernier caliper. The tumor volume (V) was calculated using the following formula: V = 0.5a × b^2, wherein a and b represent the long diameter and short diameter of the tumor, respectively.
Mouse body weight was measured twice weekly.
Two way ANOVA was used to compare the differences in tumor growth trend among groups, and a significant difference was considered when p < 0.05.

The values below come from patent publication EP4744665A1, “COMBINATION OF POLQ INHIBITOR COMPOUND AND ANTI-CANCER THERAPEUTIC AGENT OR RADIOTHERAPY” (Simcere Zaiming Pharmaceutical Co., Ltd., priority 2023, dated 2025).

Take `COc1ccc(Cl)cc1-c1cc(C)ncc1C(=O)Nc1nc2ncc(-c3ccc(C#N)cc3)nc2s1.[Na]` [Sodium salt of compound I, Sodium Salt of 4-(5-Chloro-2-methoxyphenyl)-N-[6-(4-cyanophenyl)thiazolo[4,5-b]pyrazin-2-yl]-6-methylnicotinamide]: the Combined effect entry in data set [1], in data set [2], in data set [3], in data set [4], in data set [5] and in data set [6] was “Synergistic” throughout. Besides, the Combined effect entry in data set [7] was “Synergistic”. Moreover, the “anti-tumor effect of combination with olaparib” value in data set [8] is reported as “synergistic anti-tumor effect”. Further, in data set [8] (versus either single drug group), the tumor volume entry was “significantly lower”. Besides, the safety result in data set [8] (condition of mice, body weight) is given as “good safety”.
